Test results published in US20210255184A1, “Biosensor Device and Methods” (The New Zealand Institute for Plant and Food Research …, priority 2018, published 2021).

Experiments:
Assay type in all cases: biochemical
[1] = molecular target: T1, Orco (Drosophila melanogaster, UniProt Q9VNB5); assay: EIS sensor, Orco liposomes (specificity control); conditions: Orco only liposomes
T1 construct: his-tag; made in house; host or cells: baculovirus-infected Sf9 cells
T1 sequence (Q9VNB5 1-486): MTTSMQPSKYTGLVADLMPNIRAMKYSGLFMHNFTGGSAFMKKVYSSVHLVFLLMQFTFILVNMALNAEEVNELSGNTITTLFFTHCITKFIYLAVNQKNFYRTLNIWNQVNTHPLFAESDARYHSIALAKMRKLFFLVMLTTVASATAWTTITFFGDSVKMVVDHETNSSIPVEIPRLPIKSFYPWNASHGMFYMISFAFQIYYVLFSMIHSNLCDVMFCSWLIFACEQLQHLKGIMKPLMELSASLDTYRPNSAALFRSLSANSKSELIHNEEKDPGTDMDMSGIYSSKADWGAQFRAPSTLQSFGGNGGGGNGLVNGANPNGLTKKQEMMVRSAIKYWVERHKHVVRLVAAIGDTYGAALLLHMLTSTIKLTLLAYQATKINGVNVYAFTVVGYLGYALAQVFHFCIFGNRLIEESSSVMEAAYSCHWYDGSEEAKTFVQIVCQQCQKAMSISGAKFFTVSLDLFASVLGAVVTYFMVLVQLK
Protocol: Prior to their use, liposomes were defrosted on ice and then destabilized by incubating with 0.2% CHAPS for 15 min at room temperature. Then 200 μg of purified odorant receptor^28 was added to 1 mg of liposomes and rotated at 10 rpm for 1 h at room temperature. Excess detergent was removed by four additions of 25 mg of Bio-Beads SM-2 (Bio-Rad, USA) and incubation at 4° C. for 30 min, 2 h, overnight and a further 2 h respectively. The Bio-Beads were removed after each incubation period. The OrX or OrX/Orco integrated liposomes were pelleted by centrifugation at 100,000 g for 1 h, and were resuspended in 500 μL of rehydration buffer. Integration of OrXs and Orco into liposomes was assessed by density gradient ultracentrifugation (DGU) using Accudenz (Accurate Chemical & Scientific Corporation, USA). The integrated liposomes were brought to 40% Accudenz by the addition of an equal volume of 80% Accudenz solution, placed at the bottom of an ultra-centrifugation tube, and overlaid with 30% Accudenz solution, and DGU buffer (25 mM HEPES pH 7.5, 100 mM NaCl, 10% glycerol). The sample was then centrifuged at 100,000 g for 4 h at 4° C. […]
PBS solution was prepared by immersing one tablet of PBS in 200 ml of milli-Q water (according to manufacturers instructions) and filtered using 0.2-μm syringe filter. The pH of the prepared buffer solution was measured with a pH meter. […]

[2] = molecular target: T2, Or10a (Drosophila melanogaster, UniProt Q9VYZ1); assay: EIS sensor, Or10a liposomes on gold electrode
T2 construct: his-tag; made in house; host or cells: baculovirus-infected Sf9 cells
T2 sequence (Q9VYZ1 1-406): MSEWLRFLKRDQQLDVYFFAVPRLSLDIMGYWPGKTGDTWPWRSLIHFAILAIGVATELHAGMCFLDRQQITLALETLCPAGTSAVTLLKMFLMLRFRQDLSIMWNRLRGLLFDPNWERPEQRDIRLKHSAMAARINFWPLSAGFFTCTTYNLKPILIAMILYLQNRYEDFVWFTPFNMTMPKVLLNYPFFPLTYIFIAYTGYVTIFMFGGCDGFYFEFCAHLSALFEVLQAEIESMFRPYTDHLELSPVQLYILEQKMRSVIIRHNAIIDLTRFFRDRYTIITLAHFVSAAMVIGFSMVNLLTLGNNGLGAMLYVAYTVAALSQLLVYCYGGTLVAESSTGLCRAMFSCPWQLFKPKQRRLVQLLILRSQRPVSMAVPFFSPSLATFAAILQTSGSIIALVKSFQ
Protocol: Prior to their use, liposomes were defrosted on ice and then destabilized by incubating with 0.2% CHAPS for 15 min at room temperature. Then 200 μg of purified odorant receptor^28 was added to 1 mg of liposomes and rotated at 10 rpm for 1 h at room temperature. Excess detergent was removed by four additions of 25 mg of Bio-Beads SM-2 (Bio-Rad, USA) and incubation at 4° C. for 30 min, 2 h, overnight and a further 2 h respectively. The Bio-Beads were removed after each incubation period. The OrX or OrX/Orco integrated liposomes were pelleted by centrifugation at 100,000 g for 1 h, and were resuspended in 500 μL of rehydration buffer. Integration of OrXs and Orco into liposomes was assessed by density gradient ultracentrifugation (DGU) using Accudenz (Accurate Chemical & Scientific Corporation, USA). The integrated liposomes were brought to 40% Accudenz by the addition of an equal volume of 80% Accudenz solution, placed at the bottom of an ultra-centrifugation tube, and overlaid with 30% Accudenz solution, and DGU buffer (25 mM HEPES pH 7.5, 100 mM NaCl, 10% glycerol). The sample was then centrifuged at 100,000 g for 4 h at 4° C. Liposomes will float to the top of the gradient after Accudenz DGU due to their low density.
2 mM MHA was prepared by dissolving 1.36 μl of MHA in 5 ml ethanol (AR grade). The cleaned electrodes were immersed into MHA solution and incubated overnight. The next day, all the electrodes were washed with ethanol and deionised water thoroughly in order to remove the unreacted acid. A 2:1 mol:mol ratio of EDC:NHS (100 mM EDC, 50 mM NHS) was prepared in 2 ml PBS (pH=6.5) solution. Then, the electrodes were covered in 100 μl of this solution at 28° C. for an hour to activate the carboxylic (COOH) groups of the MHA.
(§1) PBS solution was prepared by immersing one tablet of PBS in 200 ml of milli-Q water (according to manufacturers instructions) and filtered using 0.2-μm syringe filter. The pH of the prepared buffer solution was measured with a pH meter. OrX liposomes or OrX/Orco liposomes were diluted 100 fold in PBS buffer solution (pH=7.4) and the COOH-activated electrodes were incubated in that buffer solution at room temperature for one hour. Then, the electrodes were washed extensively with PBS buffer solution to wash out any unbound liposomes.
(§2) PBS (pH=7.4) was used as an electrolyte to conduct electrochemical measurements. PBS buffer was degassed for about 30 minutes prior to electrochemical measurements. Odorant solutions of concentration ranging from 1 aM to 1 μM were prepared by sequential dilution in PBS solution containing 1% DMSO. OR immobilized electrodes were incubated in relevant odorant solution for ˜30 minutes each and washed gently with PBS before EIS measurements.
(§3) EIS measurements were done in a 3 electrode cell containing Ag/AgCl (3 M NaCl, 0.209 V vs. SHE) reference electrode, coiled platinum wire as a counter electrode and the gold disk as a working electrode at a fixed voltage of −0.7 using PalmSens potentiostat. Degassed PBS was used as an electrolyte.
(§4) EIS measurements were performed on gold electrodes functionalised with OrX liposomes (either Or10a or Or22a), OrX/Orco liposomes, or empty liposomes prior to and after target ligand or control ligand incubation with increasing concentrations (1 aM to 100 μM). Dose response curves were obtained by defining sensor response as −(ΔRp/R^op) versus log[C(Ligand)]. FIG. 4a presents the EIS response in terms of Nyquist plot for the Or10a liposome functionalized sensors when exposed to a solution containing one of the known target ligands of Or10a, methyl salicylate, at various concentrations. […] The dose response curve (FIG. 4b) was obtained by plotting the change in polarization resistance −(ΔRp/R^op) versus log[conc(Ligand)], as the sensor response. Here, Rp is the polarization resistance after Or10a liposome-target interaction and R^op is the polarization resistance before Or10a liposome-target interaction.

[3] = EIS sensor, empty liposomes (specificity control); conditions: empty liposomes without receptor
Protocol: as §1, §2, §3
as §4, with “Here, Rp is the polarization resistance after Or10a liposome-target interaction and R^op is the polarization resistance before Or10a liposome-target interaction.” left out

Row | SMILES | sensor response to ligand [1] | limit of detection (LOD) ([2]; EIS dose response, ligand 1 aM to 100 μM) | EC50 ([2]; Table 1, approximate) | Sensitivity limit ([2]; Table 1, * estimated visually from dose response graph) | Detection Range ([2]; Table 3) | EC50 ([2]; Table 3, fitted dose response) | sensor response to ligand [3] | sensor response to control ligand ([2]; EIS dose response)
1 | COC(=O)c1ccccc1O [methyl salicylate] | negligible response | 0.1 pM | ~100 pM | ~10^−10 M* | 10^−13 to 10^−7 M | 2.2 pM | negligible response | –
2 | CCCCCC(=O)OC [methyl hexanoate] | negligible response | – | – | – | – | – | negligible response | negligible response
